According to US20190350940A1, “PLATINUM COMPOUNDS, COMPOSITIONS, AND USES THEREOF” (priority 2015, published 2019):
Several values for one entry are separate records, joined by “and”; a condition that tells them apart may be missing. Equal values may be shown once. Entries after “also recorded” stand apart in the source; their conditions may differ.

Key:
[1] = physchem; assay type: physicochemical; conditions: for solubility at 1 hr: pH 4, aqueous buffer, thermodynamic from solid, Saturated solubility
Protocol: The formulations were prepared by stirring at room temperature for 1 hr. They were protected from light to minimize the formation of the amine product (Impurity 1) during the formulation.
The drug product process begins by preparation of a chilled, solution of 2.5% mannitol and 5 mM citrate buffer (pH about 4-5) solution to which Compound 8 drug substance is added at concentration of 5 mg/mL. […] The bulk solution is filter (0.2 μm) sterilized, aseptically filled into vials, and lyophilized. To minimize Compound 8 degradation, the bulk solution is maintained chilled and protected from light during processing. Lyophilizing Compound 8 as a dry powder was selected as the best means to minimize hydrolysis during storage. Finally, filter sterilization was chosen as the most benign means to sterilize the drug product.

[2] = pH stability: pH range screen in Britton Robinson buffer (Impurity 2 formation); assay type: physicochemical; conditions: 0.1 mg/ml in Britton Robinson buffer, room temperature
Protocol: It has been well established in the literature that the maleimide group is susceptible to a ring-opening product at physiological pH values. In order to determine the stability of Compound 8 at a range of pH values, a stock solution of 10 mg/ml Compound 8 in N,N-dimethylformamide (DMF) was spiked into a series of Britton Robinson buffers with pH set at values of 2, 4, 5, 6, 7.3, and 8 to make a final concentration of 0.1 mg/ml Compound 8. The amount of Impurity 2 (maleimide ring opening impurity) that was produced over the course of 24 hr at room temperature is shown in FIG. 1.

[3] = pH stability: buffering capacity (5 mM versus 100 mM citrate); assay type: physicochemical; conditions: 5 mM versus 100 mM citrate saline pH about 4; impurity profile over 10 hr
Protocol: In order to assess the effect of the buffering capacity, formulations were made with 5 mM and 100 mM citrate saline pH about 4. Two formulations were made in 100 mM citrate, one at 0.1 mg/ml and the other at 1 mg/ml. A third formulation of 5 mM citrate at 1 mg/ml was made for comparison to determine whether increasing the buffering capacity improved the stability of the formulation.

[4] = Single dose intravenous dose range-finding toxicity study in male rats (Compound 8-TX-001); assay type: in vivo; conditions: male, rat, in vivo, iv, single IV dose, male rats, N=3 per group; read-out: MTD and STD10
Protocol: (§1) This study (Compound 8-TX-001) was designed as a dose range finding study to support the dose selection for the repeat-dose IV toxicity GLP study in rats (Compound 8-TX-007).
(§2) The test article, Compound 8, was formulated prior to dosing as a solution in 5 mM citrate buffered saline (0.9% sodium chloride), pH about 4-4.5, at nominal concentrations of 2.7, 1.4, 1.9, and 2.3 mg/mL. Compound 8 was administered via IV injection to groups of 3 animals each at doses of 27, 14, 19, and 23 mg/kg. Dose formulations were all within the acceptance criteria (±10% of target concentration) ranging from 98.8 to 106.2 percent of target concentration. Assessment of toxicity was based on mortality, clinical observations, body weight, and food consumption, and clinical and anatomic pathology.

[5] = test system: male rats; assay: as above; assay type: in vivo; conditions: rat
Protocol: as §1, §2

[6] = test system: male and female rats; assay: Repeat-dose intravenous toxicity study in rats with a 3-week recovery period (Compound 8-TX-007); assay type: in vivo
Protocol: Groups of 30 animals (15/sex) each received vehicle control or Compound 8 9, 14, 19, or 6 mg/kg. Groups of 20 animals (10/sex) received Compound 8 9, 14, 19, or 6 mg/kg and 6 animals (3/sex) received vehicle control in the TK portion of the study.
Assessment of toxicity was based on mortality, clinical observations, functional observational battery evaluations, body weight, and food consumption and efficiency; ophthalmoscopic examinations; and clinical and anatomical pathology. RBC pellet analysis was conducted for total platinum content.
Toxicity and TK assessments were conducted for the test article and positive control.

[7] = test system: BxPC-3 human pancreatic adenocarcinoma; assay: BxPC-3 pancreatic xenograft model; assay type: in vivo, mouse; conditions: female, Crl:NU(NCr)-Foxn1^nu nude, mouse, in vivo, 20 mg/kg, 13 day
Protocol: The effect of Compound 8 on TGI was evaluated in the BxPC-3 human pancreatic adenocarcinoma nude mouse (female Crl:NU(NCr)-Foxn1^nu) xenograft model.

[8] = test system: MIA Paca-2 human pancreatic adenocarcinoma; assay: MIA Paca-2 pancreatic xenograft model; assay type: in vivo, mouse; conditions: mouse, in vivo, 10 mg/kg
[9] = test system: NCI-H520 human NSCLC; assay: NCI-H520 lung xenograft model; assay type: in vivo, mouse; conditions: mouse, in vivo
Protocol: The effect of Compound 8 also was evaluated in the NCI-H520 human NSCLC nude mouse (female CrTac:NCr-Foxn1^nu) xenograft model. […] All treatments were statistically significant compared to vehicle (p<0.0001).

[10] = test system: human plasma; assay: In vitro plasma protein binding, human plasma (Compound 8-DMPK-008); assay type: in vitro ADME; conditions: incubation 10 minutes at 37° C.
[11] = Microsomal stability; assay type: in vitro ADME; conditions: NADPH-free controls
Text: Microsomal stability could not be performed because negative controls failed. […] This is consistent with literature reports that microsomes contain protein thiols (Liebler D C, Meredith M J, Guengerich F P. Formation of glutathione conjugates by reactive metabolites of vinylidene chloride in microsomes and isolated hepatocytes. Cancer Res 1985; 45(1):186-93, the contents of which are incorporated herein by reference in their entirety), would react with Compound 8. CYP inhibition was studied to determine whether Compound 8 has an inhibitory effect on microsomes.

[12] = target: T1, CYP1A2 (Homo sapiens, UniProt P05177); assay: CYP inhibition, 1A2; assay type: in vitro ADME
T1 construct: host or cells: microsomes are mentioned

[13] = target: CYP2C19 (Homo sapiens, UniProt P33261); assay: CYP inhibition, 2C19; assay type: in vitro ADME
[14] = target: CYP2D6 (Homo sapiens, UniProt P10635); assay: CYP inhibition, 2D6; assay type: in vitro ADME
Sequence of CYP2D6 (P10635 whole entry): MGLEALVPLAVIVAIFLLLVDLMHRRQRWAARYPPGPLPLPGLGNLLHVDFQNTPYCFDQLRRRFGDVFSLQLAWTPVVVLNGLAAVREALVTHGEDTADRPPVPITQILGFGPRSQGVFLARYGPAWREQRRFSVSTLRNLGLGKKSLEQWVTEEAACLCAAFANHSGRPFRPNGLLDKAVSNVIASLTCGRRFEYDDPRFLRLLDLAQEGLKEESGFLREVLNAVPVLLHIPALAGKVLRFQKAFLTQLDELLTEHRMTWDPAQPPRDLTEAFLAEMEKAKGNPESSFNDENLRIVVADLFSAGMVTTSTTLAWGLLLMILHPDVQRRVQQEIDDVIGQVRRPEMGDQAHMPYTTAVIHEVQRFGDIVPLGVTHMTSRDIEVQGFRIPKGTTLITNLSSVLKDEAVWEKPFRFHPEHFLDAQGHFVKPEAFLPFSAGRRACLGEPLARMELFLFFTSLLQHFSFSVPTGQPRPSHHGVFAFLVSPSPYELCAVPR

T1 sequence (P05177 whole entry): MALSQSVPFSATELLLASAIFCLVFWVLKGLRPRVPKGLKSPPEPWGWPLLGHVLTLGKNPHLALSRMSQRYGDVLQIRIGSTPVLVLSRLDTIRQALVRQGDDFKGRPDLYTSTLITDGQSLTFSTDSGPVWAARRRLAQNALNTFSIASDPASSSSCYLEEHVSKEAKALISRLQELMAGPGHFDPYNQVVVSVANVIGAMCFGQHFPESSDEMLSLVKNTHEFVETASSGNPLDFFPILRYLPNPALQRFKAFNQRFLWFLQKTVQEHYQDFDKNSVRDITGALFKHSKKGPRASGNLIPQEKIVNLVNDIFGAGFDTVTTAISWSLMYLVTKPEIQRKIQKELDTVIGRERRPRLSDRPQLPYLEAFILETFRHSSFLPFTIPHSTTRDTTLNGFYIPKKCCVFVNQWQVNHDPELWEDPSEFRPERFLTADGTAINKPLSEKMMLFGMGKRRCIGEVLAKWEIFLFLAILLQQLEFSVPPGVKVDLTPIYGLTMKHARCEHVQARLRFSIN
Sequence of CYP2C19 (P33261 whole entry): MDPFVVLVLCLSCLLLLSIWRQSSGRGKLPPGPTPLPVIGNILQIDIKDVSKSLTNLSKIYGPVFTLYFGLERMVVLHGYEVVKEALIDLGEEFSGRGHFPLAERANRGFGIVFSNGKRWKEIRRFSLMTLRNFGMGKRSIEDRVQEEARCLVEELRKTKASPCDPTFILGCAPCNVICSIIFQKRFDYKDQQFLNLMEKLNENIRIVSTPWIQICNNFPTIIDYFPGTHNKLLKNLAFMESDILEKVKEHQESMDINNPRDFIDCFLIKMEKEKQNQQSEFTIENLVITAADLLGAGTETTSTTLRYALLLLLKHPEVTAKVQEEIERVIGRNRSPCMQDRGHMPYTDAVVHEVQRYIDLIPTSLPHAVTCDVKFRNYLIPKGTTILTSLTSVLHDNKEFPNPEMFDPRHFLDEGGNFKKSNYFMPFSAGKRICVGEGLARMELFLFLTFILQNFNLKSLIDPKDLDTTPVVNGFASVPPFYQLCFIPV

SMILES: CC(=O)[O][Pt]([NH2])([NH2])([Cl])([Cl])[O]C(=O)NCCCCCN1C(=O)C=CC1=O [Compound 8]
- solubility at 1 hr ([1]; overall estimate): ~9 mg/mL
- solubility at 1 hr ([1]; range of five different lots): 8 to 23 mg/mL
- solubility ([1]; pH 4.5, aqueous buffer, Saturated solubility of the drug substance): 16 to 17 mg/mL
- Impurity 2 (maleimide ring opening impurity) formation ([2]; pH 5, 4 hr): not detected
- Impurity 2 (maleimide ring opening impurity) formation ([2]; pH 6, within 1 hr): not detected
- Impurity 2 (maleimide ring opening impurity) formation ([2]; pH values below 4, up to 24 hr): not produced
- Effect of buffering capacity on stability [3]: little effect
- MTD [4]: 19 mg/kg
- Renal function and renal injury ([5]; in vivo, 14 mg/kg): Evidence of reduced renal function and renal injury
- Inflammatory response (leukocytes, neutrophils, monocytes, lymphocytes) ([5]; in vivo, 19 mg/kg): Evidence of an inflammatory response
- Body weight ([5]; in vivo, 23 mg/kg): Decreases in body weight were noted throughout the study
- MTD and STD10 (MTD dose) ([5]; single IV dose, corresponds to 19 mg/kg): 122 mg/m^2 and 120 (MTD*) mg/m^2 and 120 (MTD^1) mg/m^2
- Body weights (decreased relative to vehicle) ([6]; Compound 8 9 mg/kg): transiently through Day 7
- Local tolerance: microscopic evaluation of the last injection site ([6]; Compound 8 19 mg/kg, terminal males and females): slightly increased incidence and/or severity of perivascular subacute/chronic inflammation and/or hemorrhage
- Changes attributable to altered renal function ([6]; Compound 8 9, 14, 19 mg/kg): noted in both sexes at all Compound 8 dose levels
- Deaths, clinical observations, functional observation battery (FOB), ophthalmic examinations ([6]; Compound 8 9, 14, 19 mg/kg): no deaths and no effects were noted
- Clinical Chemistry (moderate to marked) ([6]; Compound 8, 19 mg/kg): Creatinine↑, AST↑, ALT↑,; also recorded: Amylase↑, Lipase↑,; also recorded: Cholesterol↑ Globulin↑
- Clinical observations, FOB and ophthalmic observations ([6]; Compound 8, 19 mg/kg): No adverse effects
- Mortality ([6]; Compound 8, 19 mg/kg): No unscheduled deaths
- Pathology: Kidneys (moderate or severe) ([6]; Compound 8, 19 mg/kg): Tubule degeneration/necrosis
- Pathology: Organ weights ([6]; Compound 8, 19 mg/kg): Thymus↓
- Pathology: Stomach nonglandular ([6]; Compound 8, 19 mg/kg): erosion ulcer (1M), no
- Pathology: Testes ([6]; Compound 8, 19 mg/kg): Degeneration/atrophy (1M)
- Pathology: Thymus ([6]; Compound 8, 19 mg/kg): (1M), (moderate at terminal,
- Microscopic changes, kidney ([6]; rat, in vivo): kidney tubular degeneration/necrosis and/or regeneration
- Organ weight changes ([6]; rat, in vivo, 14 mg/kg): decreased absolute and relative thymus weights in males and females
- Increase in urea nitrogen ([6]; rat, in vivo, 19 mg/kg): +14%
- Treatment-related side effects [7]: swollen tails on Day 13 in all animals
- Mean maximal BW loss [8]: 3.7%
- Treatment-related adverse effects [8]: No treatment-related adverse effects
- Mean maximal BW loss ([9]; 10 mg/kg): 2.7%
- Mean maximal BW loss ([9]; 15 mg/kg): 11%
- Protein bound [10]: > 99%
- Stability in microsome preparations [11]: below the limit of quantitation; also recorded: disappeared quickly
- IC50 [12]: 550 nM
- IC50 [13]: 2720 nM
- IC50 [14]: 720 nM
